Laboratory results taken from patent US9695155B2, “Herbicidal substituted pyrimidinyloxy benzene compounds” (E. I. DU PONT DE NEMOURS AND COMPANY, priority 2013, dated 2017).

Columns and labels:
wild poinsettia = assay: Test E postemergence; type: in vivo, Euphorbia heterophylla
From the text: (§1) Seeds of plant species selected from corn (Zea mays), soybean (Glycine max), velvetleaf (Abutilon theophrasti), lambsquarters (Chenopodium album), wild poinsettia (Euphorbia heterophylla), palmer pigweed (Amaranthus palmeri), waterhemp (common waterhemp, Amaranthus rudis), surinam grass (Brachiaria decumbens), large (Lg) crabgrass (Digitaria sanguinalis), Brazilian crabgrass (Digitaria horizontalis), fall panicum (Panicum dichotomiflorum), giant foxtail (Setaria faberii), green foxtail (Setaria viridis), goosegrass (Eleusine indica), johnsongrass (Sorghum halepense), ragweed (common ragweed, Ambrosia elatior), barnyardgrass (Echinochloa crus-galli), sandbur (southern sandbur, Cenchrus echinatus), arrowleaf sida (Sida rhombifolia), Italian ryegrass (Lolium multiflorum), dayflower (Virginia (VA) dayflower, Commelina virginica), field bindweed (Convolvulus arvensis), morningglory (Ipomoea coccinea), nightshade (eastern black nightshade, Solanum ptycanthum), kochia (Kochia scoparia), yellow nutsedge (Cyperus esculentus), cocklebur (common cocklebur, Xanthium strumarium), smartweed (ladysthumb smartweed, and hairy beggarticks (Bidens pilosa), were planted into a silt loam soil and treated preemergence with test chemicals formulated in a non-phytotoxic solvent mixture which included a surfactant.
(§2) At the same time, plants from these crop and weed species and also horseweed (Canada horseweed, Conyza canadensis), waterhemp_RES1, (ALS & Triazine resistant common waterhemp, Amaranthus rudis), and waterhemp_RES2, (ALS & HPPD resistant common waterhemp, Amaranthus rudis) were planted in pots containing Redi-Earth® planting medium (Scotts Company, 14111 Scottslawn Road, Marysville, Ohio 43041) comprising spaghnum peat moss, vermiculite, wetting agent and starter nutrients were treated with postemergence applications of test chemicals formulated in the same manner. Plants ranged in height from 2 to 18 cm for postemergence treatments (1- to 4-leaf stage). Treated plants and controls were maintained in a greenhouse for 14 to 21 days, after which time all species were compared to controls and visually evaluated. Plant response ratings, summarized in Table E, are based on a scale of 0 to 100 where 0 is no effect and 100 is complete control. A dash (-) response means no test result.

field bindweed = assay: Test E postemergence; type: in vivo, Convolvulus arvensis
From the text: as §1, §2

palmer pigweed = assay: Test E postemergence; type: in vivo, Amaranthus palmeri
From the text: as §1, §2

hairy beggarticks = assay: Test E postemergence; type: in vivo, Bidens pilosa
From the text: as §1, §2

ducksalad = assay: Test C flooded paddy test; type: in vivo, Heteranthera limosa; settings: Flood, scale 0 to 100 (0 no effect, 100 complete control), 13 to 15 days
In short: (§3)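 Test compounds are applied straight into paddy water held 3 cm above the soil surface, with that flood maintained for the whole test. After 13 to 15 days in the greenhouse, each species is scored visually relative to controls.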

barnyardgrass = assay: Test C flooded paddy test; type: in vivo, Echinochloa crus-galli; settings: Flood, scale 0 to 100 (0 no effect, 100 complete control), 13 to 15 days
In short: as §3

[1] = Euphorbia heterophylla, post-emergence, Postemergence, 31 g ai/ha, scale 0 to 100, read-out: Plant response rating, Poinsettia, Wild
[2] = Euphorbia heterophylla, post-emergence, Postemergence, 62 g ai/ha, scale 0 to 100, read-out: Plant response rating, Poinsettia, Wild
[3] = Euphorbia heterophylla, post-emergence, Postemergence, 125 g ai/ha, scale 0 to 100, read-out: Plant response rating, Poinsettia, Wild
[4] = Euphorbia heterophylla, post-emergence, postemergence, 16 g ai/ha, scale 0 to 100, 0 no effect, 100 complete control, read-out: Plant response rating, Poinsettia, Wild
[5] = Convolvulus arvensis, post-emergence, Postemergence, 31 g ai/ha, scale 0 to 100, read-out: Plant response rating, Field Bindweed
[6] = Convolvulus arvensis, post-emergence, Postemergence, 62 g ai/ha, scale 0 to 100, read-out: Plant response rating, Field Bindweed
[7] = Convolvulus arvensis, post-emergence, Postemergence, 125 g ai/ha, scale 0 to 100, read-out: Plant response rating, Field Bindweed
[8] = Convolvulus arvensis, post-emergence, postemergence, 16 g ai/ha, scale 0 to 100, 0 no effect, 100 complete control, read-out: Plant response rating, Field Bindweed
[9] = post-emergence, Postemergence, 31 g ai/ha, scale 0 to 100, read-out: Plant response rating, Pigweed, Palmer
[10] = post-emergence, Postemergence, 62 g ai/ha, scale 0 to 100, read-out: Plant response rating, Pigweed, Palmer
[11] = post-emergence, Postemergence, 125 g ai/ha, scale 0 to 100, read-out: Plant response rating, Pigweed, Palmer
[12] = post-emergence, postemergence, 16 g ai/ha, scale 0 to 100, 0 no effect, 100 complete control, read-out: Plant response rating, Pigweed, Palmer
[13] = Bidens pilosa, post-emergence, Postemergence, 31 g ai/ha, scale 0 to 100, read-out: Plant response rating, Beggarticks
[14] = Bidens pilosa, post-emergence, Postemergence, 62 g ai/ha, scale 0 to 100, read-out: Plant response rating, Beggarticks
[15] = Bidens pilosa, post-emergence, Postemergence, 125 g ai/ha, scale 0 to 100, read-out: Plant response rating, Beggarticks
[16] = Bidens pilosa, post-emergence, postemergence, 16 g ai/ha, scale 0 to 100, 0 no effect, 100 complete control, read-out: Plant response rating, Beggarticks
[17] = Postemergence, 31 g ai/ha, scale 0 to 100
[18] = Postemergence, 62 g ai/ha, scale 0 to 100
[19] = Postemergence, 125 g ai/ha, scale 0 to 100
[20] = postemergence, 16 g ai/ha, scale 0 to 100, 0 no effect, 100 complete control
[21] = postemergence, 8 g ai/ha, scale 0 to 100, 0 no effect, 100 complete control

Clc1cnn(-c2ccccc2Oc2ncc(Br)cn2)c1 [Compound 5, 5-bromo-2-[2-(4-chloro-1H-pyrazol-1-yl)phenoxy]pyrimidine]
pest or weed control at 31 g/ha (wild poinsettia; [1]): 20%
pest or weed control at 62 g/ha (wild poinsettia; [2]): 30%
pest or weed control at 125 g/ha (wild poinsettia; [3]): 35%
pest or weed control at 250 g/ha (wild poinsettia; Euphorbia heterophylla, post-emergence, Postemergence, 250 g ai/ha, scale 0 to 100, read-out: Plant response rating, Poinsettia, Wild): 50%
pest or weed control at 16 g/ha (wild poinsettia; [4]): 10%
pest or weed control at 31 g/ha (field bindweed; [5]): 20%
pest or weed control at 62 g/ha (field bindweed; [6]): 30%
pest or weed control at 125 g/ha (field bindweed; [7]): 30%
pest or weed control at 250 g/ha (field bindweed; Convolvulus arvensis, post-emergence, Postemergence, 250 g ai/ha, scale 0 to 100, read-out: Plant response rating, Field Bindweed): 40%
pest or weed control at 16 g/ha (field bindweed; [8]): 10%
pest or weed control at 31 g/ha (palmer pigweed; [9]): 75%
pest or weed control at 62 g/ha (palmer pigweed; [10]): 85%
pest or weed control at 125 g/ha (palmer pigweed; [11]): 95%
pest or weed control at 250 g/ha (palmer pigweed; post-emergence, Postemergence, 250 g ai/ha, scale 0 to 100, read-out: Plant response rating, Pigweed, Palmer): 98%
pest or weed control at 16 g/ha (palmer pigweed; [12]): 60%
pest or weed control at 31 g/ha (hairy beggarticks; [13]): 40%
pest or weed control at 62 g/ha (hairy beggarticks; [14]): 60%
pest or weed control at 125 g/ha (hairy beggarticks; [15]): 60%
pest or weed control at 250 g/ha (hairy beggarticks; Bidens pilosa, post-emergence, Postemergence, 250 g ai/ha, scale 0 to 100, read-out: Plant response rating, Beggarticks): 70%
pest or weed control at 16 g/ha (hairy beggarticks; [16]): 30%

N#Cc1cccc(Oc2ncc(F)cn2)c1-n1cc(C(F)(F)F)cn1 [Compound 79, 3-[(5-fluoro-2-pyrimidinyl)oxy]-2-[4-(trifluoromethyl)-1H-pyrazol-1-yl]benzonitrile]
pest or weed control at 31 g/ha (wild poinsettia; [1]): 40%
pest or weed control at 62 g/ha (wild poinsettia; [2]): 50%
pest or weed control at 125 g/ha (wild poinsettia; [3]): 60%
pest or weed control at 16 g/ha (wild poinsettia; [4]): 40%
pest or weed control at 31 g/ha (field bindweed; [5]): 70%
pest or weed control at 62 g/ha (field bindweed; [6]): 80%
pest or weed control at 125 g/ha (field bindweed; [7]): 80%
pest or weed control at 16 g/ha (field bindweed; [8]): 60%
pest or weed control at 31 g/ha (palmer pigweed; [9]): 50%
pest or weed control at 62 g/ha (palmer pigweed; [10]): 95%
pest or weed control at 125 g/ha (palmer pigweed; [11]): 90%
pest or weed control at 16 g/ha (palmer pigweed; [12]): 50%
pest or weed control at 31 g/ha (hairy beggarticks; [13]): 50%
pest or weed control at 62 g/ha (hairy beggarticks; [14]): 75%
pest or weed control at 125 g/ha (hairy beggarticks; [15]): 80%
pest or weed control at 16 g/ha (hairy beggarticks; [16]): 40%

FC(F)c1cnn(-c2ccccc2Oc2ncc(Cl)cn2)c1 [Compound 80, 5-chloro-2-[2-[4-(difluoromethyl)-1H-pyrazol-1-yl]phenoxy]pyrimidine]
Plant response rating, Ducksalad (ducksalad; 250 g ai/ha): 50
Plant response rating, Ducksalad (ducksalad; 500 g ai/ha): 75
Plant response rating, Ducksalad (ducksalad; 1000 g ai/ha): 80
Plant response rating, Ducksalad (ducksalad; 2000 g ai/ha): 80
Plant response rating, Barnyardgrass (barnyardgrass; 250 g ai/ha): 0
Plant response rating, Barnyardgrass (barnyardgrass; 500 g ai/ha): 0
Plant response rating, Barnyardgrass (barnyardgrass; 1000 g ai/ha): 0
Plant response rating, Barnyardgrass (barnyardgrass; 2000 g ai/ha): 0

N#Cc1cccc(Oc2ncc(Cl)cn2)c1-n1cc(OC(F)F)cn1 [Compound 97]
Plant response rating, Ducksalad (ducksalad; 31 g ai/ha): 0
Plant response rating, Ducksalad (ducksalad; 62 g ai/ha): 40
Plant response rating, Ducksalad (ducksalad; 125 g ai/ha): 75
Plant response rating, Ducksalad (ducksalad; 250 g ai/ha): 80
Plant response rating, Barnyardgrass (barnyardgrass; 31 g ai/ha): 0
Plant response rating, Barnyardgrass (barnyardgrass; 62 g ai/ha): 0
Plant response rating, Barnyardgrass (barnyardgrass; 125 g ai/ha): 0
Plant response rating, Barnyardgrass (barnyardgrass; 250 g ai/ha): 0

Fc1cccc(Oc2ncc(Cl)cn2)c1-n1cc(C(F)F)nn1 [Compound 141, 5-chloro-2-[2-[4-(difluoromethyl)-1H-1,2,3-triazol-1-yl]-3-fluorophenoxy]pyrimidine]
Plant response rating, Ducksalad (ducksalad; 31 g ai/ha): 65
Plant response rating, Ducksalad (ducksalad; 62 g ai/ha): 80
Plant response rating, Ducksalad (ducksalad; 125 g ai/ha): 95
Plant response rating, Ducksalad (ducksalad; 250 g ai/ha): 100
Plant response rating, Barnyardgrass (barnyardgrass; 31 g ai/ha): 0
Plant response rating, Barnyardgrass (barnyardgrass; 62 g ai/ha): 0
Plant response rating, Barnyardgrass (barnyardgrass; 125 g ai/ha): 15
Plant response rating, Barnyardgrass (barnyardgrass; 250 g ai/ha): 20

Fc1cccc(Oc2ncc(Cl)cn2)c1-n1cc(Cl)cn1 [Compound 177]
Plant response rating, Ducksalad (ducksalad; 31 g ai/ha): 20
Plant response rating, Ducksalad (ducksalad; 62 g ai/ha): 60
Plant response rating, Ducksalad (ducksalad; 125 g ai/ha): 85
Plant response rating, Ducksalad (ducksalad; 250 g ai/ha): 95
Plant response rating, Barnyardgrass (barnyardgrass; 31 g ai/ha): 0
Plant response rating, Barnyardgrass (barnyardgrass; 62 g ai/ha): 0
Plant response rating, Barnyardgrass (barnyardgrass; 125 g ai/ha): 0
Plant response rating, Barnyardgrass (barnyardgrass; 250 g ai/ha): 0

Clc1cnc(Oc2cccc(Cl)c2-n2cc(I)cn2)nc1 [Compound 181]
Plant response rating, Poinsettia, Wild (wild poinsettia; [17]): 50
Plant response rating, Poinsettia, Wild (wild poinsettia; [18]): 50
Plant response rating, Poinsettia, Wild (wild poinsettia; [19]): 60
Plant response rating, Poinsettia, Wild (wild poinsettia; [20]): 40
Plant response rating, Field Bindweed (field bindweed; [17]): 40
Plant response rating, Field Bindweed (field bindweed; [18]): 40
Plant response rating, Field Bindweed (field bindweed; [19]): 50
Plant response rating, Field Bindweed (field bindweed; [20]): 25
Plant response rating, Pigweed, Palmer (palmer pigweed; [17]): 70
Plant response rating, Pigweed, Palmer (palmer pigweed; [18]): 90
Plant response rating, Pigweed, Palmer (palmer pigweed; [19]): 98
Plant response rating, Pigweed, Palmer (palmer pigweed; [20]): 80
Plant response rating, Beggarticks (hairy beggarticks; [17]): 40
Plant response rating, Beggarticks (hairy beggarticks; [18]): 50
Plant response rating, Beggarticks (hairy beggarticks; [19]): 60
Plant response rating, Beggarticks (hairy beggarticks; [20]): 40

FC(F)c1cnn(-c2c(Cl)cccc2Oc2ncc(Cl)cn2)c1 [Compound 192]
Plant response rating, Ducksalad (ducksalad; 31 g ai/ha): 0
Plant response rating, Ducksalad (ducksalad; 62 g ai/ha): 0
Plant response rating, Ducksalad (ducksalad; 125 g ai/ha): 70
Plant response rating, Ducksalad (ducksalad; 250 g ai/ha): 75
Plant response rating, Barnyardgrass (barnyardgrass; 31 g ai/ha): 0
Plant response rating, Barnyardgrass (barnyardgrass; 62 g ai/ha): 0
Plant response rating, Barnyardgrass (barnyardgrass; 125 g ai/ha): 0
Plant response rating, Barnyardgrass (barnyardgrass; 250 g ai/ha): 0

Clc1cnc(Oc2ccccc2-n2cc(Br)nn2)nc1 [Compound 223]
Plant response rating, Poinsettia, Wild (wild poinsettia; [17]): 40
Plant response rating, Poinsettia, Wild (wild poinsettia; [18]): 50
Plant response rating, Poinsettia, Wild (wild poinsettia; [19]): 60
Plant response rating, Poinsettia, Wild (wild poinsettia; [21]): 30
Plant response rating, Poinsettia, Wild (wild poinsettia; [20]): 30
Plant response rating, Field Bindweed (field bindweed; [17]): 35
Plant response rating, Field Bindweed (field bindweed; [18]): 50
Plant response rating, Field Bindweed (field bindweed; [19]): 50
Plant response rating, Field Bindweed (field bindweed; [21]): 20
Plant response rating, Field Bindweed (field bindweed; [20]): 20
Plant response rating, Pigweed, Palmer (palmer pigweed; [17]): 50
Plant response rating, Pigweed, Palmer (palmer pigweed; [18]): 60
Plant response rating, Pigweed, Palmer (palmer pigweed; [19]): 85
Plant response rating, Pigweed, Palmer (palmer pigweed; [21]): 15
Plant response rating, Pigweed, Palmer (palmer pigweed; [20]): 25
Plant response rating, Beggarticks (hairy beggarticks; [17]): 60
Plant response rating, Beggarticks (hairy beggarticks; [18]): 75
Plant response rating, Beggarticks (hairy beggarticks; [19]): 85
Plant response rating, Beggarticks (hairy beggarticks; [21]): 40
Plant response rating, Beggarticks (hairy beggarticks; [20]): 50
